Here are results for 18 compounds from US20260028326A1, “COMPOUND BASED ON ISOINDOLINE-SUBSTITUTED GLUTARIMIDE BACKBONE AND USE THEREOF” (GLUETACS THERAPEUTICS (SHANGHAI) CO., LTD., priority 2022, published 2026).

Structures are written as SMILES.

human Cereblon WT GST-tagged protein, sequence (Q96SW2 whole entry): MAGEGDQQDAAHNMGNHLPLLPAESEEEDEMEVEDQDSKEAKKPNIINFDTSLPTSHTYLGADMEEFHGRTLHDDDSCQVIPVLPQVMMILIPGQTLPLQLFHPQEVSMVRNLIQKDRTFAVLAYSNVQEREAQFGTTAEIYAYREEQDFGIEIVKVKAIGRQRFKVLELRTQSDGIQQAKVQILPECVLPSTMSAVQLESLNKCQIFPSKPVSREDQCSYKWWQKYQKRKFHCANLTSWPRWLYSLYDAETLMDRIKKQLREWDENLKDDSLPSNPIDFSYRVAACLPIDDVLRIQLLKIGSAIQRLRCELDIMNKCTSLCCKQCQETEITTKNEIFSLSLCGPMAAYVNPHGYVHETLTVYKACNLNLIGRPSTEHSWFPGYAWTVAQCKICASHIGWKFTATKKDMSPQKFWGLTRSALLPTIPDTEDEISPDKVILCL

The experiment addresses human Cereblon WT GST-tagged protein (Homo sapiens (Human), UniProt Q96SW2). As to the kind of experiment: CRBN-binding affinity, HTRF (CEREBLON BINDING kit). Here is the method: The CEREBLON BINDING kits (specification: 10,000 tests; product number: Catalog #64BDCRBNPEH; CISBIO company) was used to determine the CRBN binding ability of the compounds to be tested through a HTRF method (homogeneous time-resolved fluorescence). The specific methods are as follows: • 1. […] Then, 2.5 μL of human Cereblon WT GST-tagged protein solution was added to each well. Finally, 5 μL of the thoroughly mixed Thalidomide-Re reagent and GST Eu antibody working solution were added to each of the aforementioned wells. […] The blank control wells were sequentially added with 2.5 μL of diluent #9 (1×) solution, 2.5 μL of PROTAC binding buffer, and 5 μL of thoroughly mixed Thalidomide-Re reagent and GST Eu antibody working solution. • 4.
The corresponding CRBN binding inhibition rate was calculated using the following method: […]
(Time-resolved FRET reads energy transfer from a long-lived donor to a nearby acceptor.)
By IC50 is commonly meant the midpoint of a concentration-inhibition curve. In the case of `CC1(C)CCC(CN2CC(=Cc3ccc4c(c3)CN(C3CCC(=O)NC3=O)C4=O)C2)=C(c2ccc(F)cc2)C1` (stereo not drawn) [GT-05483, 3-(5-((1-((4′-fluoro-5,5-dimethyl-3,4,5,6-tetrahydro-[1,1′-biphenyl]-2-yl)methyl)azetidin-3-ylidene)methyl)-1-oxoisoindolin-2-yl)piperidine-2,6-dione], the IC50 was 510 nM. Next, `CC1(C)CCC(C(=O)N2CC3CCC(C2)N3Cc2ccc3c(c2)CN(C2CCC(=O)NC2=O)C3=O)=C(c2ccc(F)cc2)C1` (stereo not drawn) [GT-05516, 3-(5-((3-(4′-fluoro-5,5-dimethyl-3,4,5,6-tetrahydro-[1,1′-biphenyl]-2-carbonyl)-3,8-diazabicyclo[3.2.1]octan-8-yl)methyl)-1-oxoisoindolin-2-yl)piperidine-2,6-dione]: 600 nM. Next, `O=C1CCC(N2C(=O)c3ccc(CN4CCN(C(=O)C5=C(c6ccc(F)cc6)CCCC5)CC4)cc3C2=O)C(=O)N1` (stereo not drawn) [GT-05468, 2-(2,6-dioxopiperidin-3-yl)-5-((4-(4′-fluoro-3,4,5,6-tetrahydro-[1,1′-biphenyl]-2-carbonyl)piperazin-1-yl)methyl)isoindoline-1,3-dione]: 1500 nM. In turn, `CC1(C)CCC(C(=O)N2CC3CN(Cc4ccc5c(c4)CN(C4CCC(=O)NC4=O)C5=O)CC3C2)=C(c2ccc(F)cc2)C1` (stereo not drawn) [GT-05405, 3-(5-((5-(4′-fluoro-5,5-dimethyl-3,4,5,6-tetrahydro-[1,1′-biphenyl]-2-carbonyl)hexahydropyrrolo[3,4-c]pyrrol-2(1H)-yl)methyl)-1-oxoisoindolin-2-yl)piperidine-2,6-dione] showed a half-maximal inhibitory concentration (IC50) of 500 nM.

Turning to `O=C1CCC(N2Cc3cc(C(=O)N4CC5(CCN(Cc6ccccc6-c6ccc(Cl)cc6)CC5)C4)ccc3C2=O)C(=O)N1` (stereo not drawn) [GT-05641, 3-(5-(7-((4′-chloro-[1,1′-biphenyl]-2-yl)methyl)-2,7-diazaspiro[3.5]nonane-2-carbonyl)-1-oxoisoindolin-2-yl)piperidine-2,6-dione], the IC50 turned out to be 1480 nM. Next, `CC1(C)CCC(CN2C3CC2CN(c2ccc4c(c2)C(=O)N(C2CCC(=O)NC2=O)C4=O)C3)=C(c2ccc(F)cc2)C1` (stereo not drawn) [GT-05387, 2-(2,6-dioxopiperidin-3-yl)-5-(6-((4′-fluoro-5,5-dimethyl-3,4,5,6-tetrahydro-[1,1′-biphenyl]-2-yl)methyl)-3,6-diazabicyclo[3.1.1]heptan-3-yl)isoindoline-1,3-dione]: 810 nM; `CC1(C)CCC(CN2C3CCC2CN(c2ccc4c(c2)CN(C2CCC(=O)NC2=O)C4=O)C3)=C(c2ccc(F)cc2)C1` (stereo not drawn) [GT-05500, 3-(5-(8-((4′-fluoro-5,5-dimethyl-3,4,5,6-tetrahydro-[1,1′-biphenyl]-2-yl)methyl)-3,8-diazabicyclo[3.2.1]octan-3-yl)-1-oxoisoindolin-2-yl)piperidine-2,6-dione]: 1870 nM; `CC1(C)CCC(CN2C[C@H]3C[C@@H]2CN3Cc2ccc3c(c2F)CN(C2CCC(=O)NC2=O)C3=O)=C(c2ccc(Cl)cc2)C1` (stereo partly drawn) [GT-03888, 3-(5-(((1R,4R)-5-((4′-chloro-5,5-dimethyl-3,4,5,6-tetrahydro-[1,1′-biphenyl]-2-yl)methyl)-2,5-diazabicyclo[2.2.1]heptan-2-yl)methyl)-4-fluoro-1-oxoisoindolin-2-yl)piperidine-2,6-dione]: 240 nM.

Turning to `O=C1CCC(N2Cc3cc(N4C5CCC4CN(C(=O)c4ccccc4-c4ccc(Cl)cc4)C5)ccc3C2=O)C(=O)N1` (stereo not drawn) [GT-05875, 3-(5-(3-(4′-chloro-[1,1′-biphenyl]-2-carbonyl)-3,8-diazabicyclo[3.2.1]octan-8-yl)-1-oxoisoindolin-2-yl)piperidine-2,6-dione], the IC50 is 510 nM.

`CC1(C)CCC(CN2C3CCC2CN(C(=O)c2ccc4c(c2)CN(C2CCC(=O)NC2=O)C4=O)C3)=C(c2ccc(Cl)cc2)C1` (stereo not drawn) [GT-05446, 3-(5-(8-((4′-chloro-5,5-dimethyl-3,4,5,6-tetrahydro-[1,1′-biphenyl]-2-yl)methyl)-3,8-diazabicyclo[3.2.1]octane-3-carbonyl)-1-oxoisoindolin-2-yl)piperidine-2,6-dione] displayed an IC50 of 1870 nM.

`CC1(C)CCC(CN2CC3CN(C(=O)c4ccc5c(c4)CN(C4CCC(=O)NC4=O)C5=O)CC3C2)=C(c2ccc(F)cc2)C1` (stereo not drawn) [GT-05447, 3-(5-(5-((4′-fluoro-5,5-dimethyl-3,4,5,6-tetrahydro-[1,1′-biphenyl]-2-yl)methyl)octahydropyrrolo[3,4-c]pyrrole-2-carbonyl)-1-oxoisoindolin-2-yl)piperidine-2,6-dione] showed a 50% inhibitory concentration (IC50) of 1150 nM. Next, `O=C1CCC(N2Cc3cc(CN4C5CC4CN(C(=O)c4ccccc4-c4ccc(Cl)cc4)C5)cc(F)c3C2=O)C(=O)N1` (stereo not drawn) [GT-05668, 3-(5-((3-(4′-chloro-[1,1′-biphenyl]-2-carbonyl)-3,6-diazabicyclo[3.1.1]heptan-6-yl)methyl)-7-fluoro-1-oxoisoindolin-2-yl)piperidine-2,6-dione]: 650 nM; `CC1(C)CCC(CN2CC3CCC2CN3Cc2cccc3c2C(=O)N(C2CCC(=O)NC2=O)C3)=C(c2ccc(Cl)cc2)C1` (stereo not drawn) [GT-05462, 3-(7-((5-((4′-chloro-5,5-dimethyl-3,4,5,6-tetrahydro-[1,1′-biphenyl]-2-yl)methyl)-2,5-diazabicyclo[2.2.2]octan-2-yl)methyl)-1-oxoisoindolin-2-yl)piperidine-2,6-dione]: 1900 nM; `CC1(C)CCC(C(=O)N2CC3CC2CN3Cc2ccc3c(c2)CN(C2CCC(=O)NC2=O)C3=O)=C(c2ccc(Cl)cc2)C1` (stereo not drawn) [GT-05524, 3-(5-((5-(4′-chloro-5,5-dimethyl-3,4,5,6-tetrahydro-[1,1′-biphenyl]-2-carbonyl)-2,5-diazabicyclo[2.2.1]heptan-2-yl)methyl)-1-oxoisoindolin-2-yl)piperidine-2,6-dione]: 490 nM. The compound `CC1(C)CCC(CN2CC3CCC2CN3C(=O)c2ccc3c(c2)CN(C2CCC(=O)NC2=O)C3=O)=C(c2ccc(Cl)cc2)C1` (stereo not drawn) [GT-05795, 3-(5-(5-((4′-chloro-5,5-dimethyl-3,4,5,6-tetrahydro-[1,1′-biphenyl]-2-yl)methyl)-2,5-diazabicyclo[2.2.2]octane-2-carbonyl)-1-oxoisoindolin-2-yl)piperidine-2,6-dione] registered an IC50 of 940 nM. Next, `CC1(C)CCC(CN2CCC(Cc3ccc4c(c3)CN(C3CCC(=O)NC3=O)C4=O)CC2)=C(c2ccc(F)cc2)C1` (stereo not drawn) [GT-03455, 3-(5-((1-((4′-fluoro-5,5-dimethyl-3,4,5,6-tetrahydro-[1,1′-biphenyl]-2-yl)methyl)piperidin-4-yl)methyl)-1-oxoisoindolin-2-yl)piperidine-2,6-dione]: 340 nM; `CC1(C)CCC(CN2CCN(CCCc3ccc4c(c3)CN(C3CCC(=O)NC3=O)C4=O)CC2)=C(c2ccc(Cl)cc2)C1` (stereo not drawn) [GT-05362, 3-(5-(3-(4-((4′-chloro-5,5-dimethyl-3,4,5,6-tetrahydro-[1,1′-biphenyl]-2-yl)methyl)piperazin-1-yl)propyl)-1-oxoisoindolin-2-yl)piperidine-2,6-dione]: 1260 nM. For `CC1(C)CCC(C(=O)N2CCC(Nc3ccc4c(c3)CN(C3CCC(=O)NC3=O)C4=O)CC2)=C(c2ccc(Cl)cc2)C1` (stereo not drawn) [GT-05783, 3-(5-((1-(4′-chloro-5,5-dimethyl-3,4,5,6-tetrahydro-[1,1′-biphenyl]-2-carbonyl)piperidin-4-yl)amino)-1-oxoisoindolin-2-yl)piperidine-2,6-dione], the IC50 turned out to be 940 nM.
